Data on six compounds can be found in patent publication US12396981B2 (priority 2023, dated 2025).

The structures appear in SMILES notation. “And” between values parts separate entries of the source, which are not always exact repeats. Identical values can stand only once.

The conditions of data set [1]: comparable to psilocin; Jones 2024; cited from earlier work.
Data set [2] concerns the target Tropomyosin receptor kinase B (TrkB) (Homo sapiens, UniProt Q16620). Particulars: Moliner 2023; cited from earlier work.
In the next data set the test system is NMDA receptors. As to conditions: Moliner 2023; cited from earlier work.
The next data set addresses sigma-1 receptor (Homo sapiens, UniProt Q99720). Particulars: Fontanilla 2009; Ray 2010; cited from earlier work.
In another data set the target is 5-HT1B (Homo sapiens, UniProt P28222). As to conditions: Halberstadt & Geyer 2011; cited from earlier work.
In the next data set the target is 5-HT1D (Homo sapiens, UniProt P28221). As to conditions: Halberstadt & Geyer 2011; cited from earlier work.
For data set [3] the following is noted: cited from earlier work.
A further data set addresses 5-HT7 (Homo sapiens, UniProt P34969). As to conditions: Halberstadt & Geyer 2011; cited from earlier work.
Data set [4] is described as follows: Challenging Experience Questionnaire (CEQ) after inhaling DMT according to a disclosed method. Format: in vivo, human. The text has this:
(§1) The study included nine participants with the following demographic characteristics:
(§2) For the MEQ and CEQ higher scores indicate a more mystical experience and a more challenging experience, respectively.

Data set [5] can be described thus: Mystical Experience Questionnaire (MEQ30) after inhaling DMT according to a disclosed method. Format: in vivo, human.
Text: as §1, §2

The conditions of data set [6]: cited from earlier work. The source holds these as a separate data set.
The next data set deals with 5-HT1E (Homo sapiens, UniProt P28566). Particulars: Halberstadt & Geyer 2011; cited from earlier work.
The target in another data set is 5-HT6 (Homo sapiens, UniProt P50406). Particulars: Halberstadt & Geyer 2011; cited from earlier work.
The next data set deals with 5-HT2A (Homo sapiens, UniProt P28223). As to conditions: Halberstadt & Geyer 2011; cited from earlier work.
The target in a further data set is 5-HT5A (Homo sapiens, UniProt P47898). As to conditions: Halberstadt & Geyer 2011; cited from earlier work.
[7] abbreviates: mean over the nine participants.
The mark [8] stands for this setting: per participant, r8-r16 = participants 1-9.
Setting [9] is: MEQ30 item score, c1-c9 = participants 1-9, after inhaled DMT per disclosed method.
[10] abbreviates: mean item score per participant, r7-r15 = participants 1-9.
Where [11] appears, read: total per participant, r7-r15 = participants 1-9.

Tropomyosin receptor kinase B (TrkB), sequence (Q16620 32-822, species assumed): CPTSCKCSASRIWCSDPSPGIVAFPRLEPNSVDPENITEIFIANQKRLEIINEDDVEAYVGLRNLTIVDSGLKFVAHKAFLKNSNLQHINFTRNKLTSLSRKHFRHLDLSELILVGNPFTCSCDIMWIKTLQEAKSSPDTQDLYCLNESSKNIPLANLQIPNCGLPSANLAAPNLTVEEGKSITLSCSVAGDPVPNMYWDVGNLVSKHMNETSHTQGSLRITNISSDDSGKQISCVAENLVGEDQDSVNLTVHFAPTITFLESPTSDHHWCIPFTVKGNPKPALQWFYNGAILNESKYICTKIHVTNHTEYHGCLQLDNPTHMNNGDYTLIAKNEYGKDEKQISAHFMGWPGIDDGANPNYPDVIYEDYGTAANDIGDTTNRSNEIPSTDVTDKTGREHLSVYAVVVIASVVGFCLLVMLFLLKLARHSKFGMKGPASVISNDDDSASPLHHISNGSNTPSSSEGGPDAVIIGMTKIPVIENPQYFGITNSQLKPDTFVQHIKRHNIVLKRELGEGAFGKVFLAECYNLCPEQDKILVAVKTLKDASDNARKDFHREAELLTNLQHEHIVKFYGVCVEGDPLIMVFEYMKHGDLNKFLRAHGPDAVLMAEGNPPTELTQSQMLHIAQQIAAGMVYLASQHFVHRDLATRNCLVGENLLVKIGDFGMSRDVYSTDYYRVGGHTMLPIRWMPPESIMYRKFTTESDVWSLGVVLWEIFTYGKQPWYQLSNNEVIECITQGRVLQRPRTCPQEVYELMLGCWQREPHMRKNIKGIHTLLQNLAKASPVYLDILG
sigma-1 receptor, sequence (Q99720 whole entry, species assumed): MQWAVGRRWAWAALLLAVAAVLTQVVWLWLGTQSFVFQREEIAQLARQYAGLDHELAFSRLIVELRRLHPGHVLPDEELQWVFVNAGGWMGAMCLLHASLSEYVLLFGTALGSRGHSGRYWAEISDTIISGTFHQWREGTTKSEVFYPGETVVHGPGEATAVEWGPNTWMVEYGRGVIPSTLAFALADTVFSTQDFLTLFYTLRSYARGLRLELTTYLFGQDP
5-HT1B, sequence (P28222 whole entry, species assumed): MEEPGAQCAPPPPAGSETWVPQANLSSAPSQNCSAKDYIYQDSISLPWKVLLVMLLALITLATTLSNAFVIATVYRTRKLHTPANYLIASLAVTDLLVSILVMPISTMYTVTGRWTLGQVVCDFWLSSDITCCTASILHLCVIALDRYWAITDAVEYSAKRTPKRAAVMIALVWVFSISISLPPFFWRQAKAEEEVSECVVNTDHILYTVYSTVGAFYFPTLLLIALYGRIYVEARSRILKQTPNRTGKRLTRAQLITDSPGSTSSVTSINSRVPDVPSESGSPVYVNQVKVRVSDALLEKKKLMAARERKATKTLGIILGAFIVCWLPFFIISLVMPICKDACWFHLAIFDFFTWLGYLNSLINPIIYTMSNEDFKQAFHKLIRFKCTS
5-HT1D, sequence (P28221 whole entry, species assumed): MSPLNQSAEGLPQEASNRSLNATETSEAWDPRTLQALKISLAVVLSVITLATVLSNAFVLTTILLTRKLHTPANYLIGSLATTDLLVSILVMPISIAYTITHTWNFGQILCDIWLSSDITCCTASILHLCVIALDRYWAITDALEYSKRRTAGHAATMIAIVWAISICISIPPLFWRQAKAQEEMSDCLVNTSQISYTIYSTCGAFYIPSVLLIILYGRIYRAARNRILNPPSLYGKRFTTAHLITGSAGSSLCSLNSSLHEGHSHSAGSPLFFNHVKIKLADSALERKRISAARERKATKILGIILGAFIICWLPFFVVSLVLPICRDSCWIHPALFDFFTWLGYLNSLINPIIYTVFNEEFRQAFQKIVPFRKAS
5-HT6, sequence (P50406 whole entry, species assumed): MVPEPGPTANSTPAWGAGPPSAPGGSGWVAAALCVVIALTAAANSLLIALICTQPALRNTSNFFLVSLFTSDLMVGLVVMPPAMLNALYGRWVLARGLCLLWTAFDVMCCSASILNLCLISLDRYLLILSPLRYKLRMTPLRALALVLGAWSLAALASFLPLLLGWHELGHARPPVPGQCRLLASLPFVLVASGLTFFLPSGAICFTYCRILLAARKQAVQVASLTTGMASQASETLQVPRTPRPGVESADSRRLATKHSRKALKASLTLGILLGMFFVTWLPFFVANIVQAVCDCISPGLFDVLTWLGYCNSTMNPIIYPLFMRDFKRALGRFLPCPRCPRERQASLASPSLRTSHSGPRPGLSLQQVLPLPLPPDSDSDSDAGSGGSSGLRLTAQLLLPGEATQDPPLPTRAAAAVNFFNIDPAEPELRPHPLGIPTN
5-HT2A, sequence (P28223 whole entry): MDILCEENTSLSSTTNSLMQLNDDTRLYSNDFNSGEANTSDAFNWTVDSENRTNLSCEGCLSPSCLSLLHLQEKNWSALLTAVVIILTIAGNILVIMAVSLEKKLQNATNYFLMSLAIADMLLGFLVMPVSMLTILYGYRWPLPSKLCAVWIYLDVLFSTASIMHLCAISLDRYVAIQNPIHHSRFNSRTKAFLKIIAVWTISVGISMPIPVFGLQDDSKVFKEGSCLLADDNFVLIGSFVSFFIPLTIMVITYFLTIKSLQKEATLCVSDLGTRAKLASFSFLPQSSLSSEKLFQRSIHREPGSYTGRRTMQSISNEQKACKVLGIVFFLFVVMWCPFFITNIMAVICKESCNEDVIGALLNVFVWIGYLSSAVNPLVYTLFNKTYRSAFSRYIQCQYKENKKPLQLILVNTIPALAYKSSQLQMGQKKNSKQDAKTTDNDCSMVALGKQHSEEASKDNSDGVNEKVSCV
5-HT1E, sequence (P28566 whole entry, species assumed): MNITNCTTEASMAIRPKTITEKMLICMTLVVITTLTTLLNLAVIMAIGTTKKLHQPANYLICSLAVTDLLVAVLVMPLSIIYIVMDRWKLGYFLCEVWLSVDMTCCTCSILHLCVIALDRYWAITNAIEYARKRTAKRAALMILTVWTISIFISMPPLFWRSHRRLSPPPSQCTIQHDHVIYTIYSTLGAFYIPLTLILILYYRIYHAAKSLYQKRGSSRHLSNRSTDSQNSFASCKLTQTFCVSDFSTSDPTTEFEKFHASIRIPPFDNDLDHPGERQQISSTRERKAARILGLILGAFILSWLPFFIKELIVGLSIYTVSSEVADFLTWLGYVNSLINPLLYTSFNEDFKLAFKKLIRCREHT
5-HT5A, sequence (P47898 whole entry, species assumed): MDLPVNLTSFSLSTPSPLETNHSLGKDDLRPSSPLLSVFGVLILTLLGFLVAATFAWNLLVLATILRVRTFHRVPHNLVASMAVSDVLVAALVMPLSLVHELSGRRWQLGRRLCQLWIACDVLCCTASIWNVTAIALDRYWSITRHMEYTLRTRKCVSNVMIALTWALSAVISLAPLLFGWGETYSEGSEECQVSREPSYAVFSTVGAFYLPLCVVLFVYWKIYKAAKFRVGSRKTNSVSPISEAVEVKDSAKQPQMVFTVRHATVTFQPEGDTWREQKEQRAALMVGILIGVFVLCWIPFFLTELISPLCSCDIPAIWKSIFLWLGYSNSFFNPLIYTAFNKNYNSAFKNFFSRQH
5-HT7, sequence (P34969 whole entry, species assumed): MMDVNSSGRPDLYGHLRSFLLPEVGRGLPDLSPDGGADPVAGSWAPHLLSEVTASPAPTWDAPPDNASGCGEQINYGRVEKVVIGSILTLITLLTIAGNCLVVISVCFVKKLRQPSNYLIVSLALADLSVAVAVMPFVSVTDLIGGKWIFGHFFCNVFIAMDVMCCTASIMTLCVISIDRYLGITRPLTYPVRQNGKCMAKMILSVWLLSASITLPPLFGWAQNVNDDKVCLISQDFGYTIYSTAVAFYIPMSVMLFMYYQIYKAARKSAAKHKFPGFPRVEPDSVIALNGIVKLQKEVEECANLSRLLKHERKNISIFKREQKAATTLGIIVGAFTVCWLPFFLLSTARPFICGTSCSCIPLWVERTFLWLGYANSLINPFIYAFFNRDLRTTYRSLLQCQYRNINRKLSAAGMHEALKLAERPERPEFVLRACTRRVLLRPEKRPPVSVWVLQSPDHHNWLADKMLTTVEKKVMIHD

In the case of `CC(=O)Oc1cccc2[nH]cc(CCN(C)C)c12` [Psilacetin, 4-acetoxy-N,N-dimethyltryptamine], the “duration of subjective effects” value in data set [1] is 4 to 8 h.
As to `N[C@@]1(c2ccccc2Cl)CCC[C@@H](O)C1=O` [2R,6R-hydroxynorketamine], the “binding to TrkB” value in data set [2] is listed as “binds to TrkB”. The “affinity to NMDA receptors” value with NMDA receptors is given as “low affinity”.
As a reminder, the Ki is the dissociation constant of the complex between target and ligand, obtained from inhibition or displacement. For `CN(C)CCc1c[nH]c2cccc(O)c12` [Psilocin, 4-hydroxy-N,N-dimethyltryptamine], at sigma-1 receptor, the “binding to the sigma-1 receptor” value is “no affinity”. Moreover, the Ki was 220 nM on 5-HT1B and 36.4 nM at 5-HT1D.
Consider `O=C1Nc2ccc(Cl)cc2C(c2ccccc2Cl)=NC1O` (racemic) [Lorazepam, ±7-chloro-5-(2-chlorophenyl)-1,3-dihydro-3-hydroxy-2H-1,4-benzodiazepin-2-one], for which the “time of peak plasma concentrations (Tmax)” value in data set [3] (after oral administration) is recorded as “about 2 hours”. Besides, the “half-life in human plasma” value in data set [3] (human plasma) was “about 12 hours”.
Take `CN(C)CCc1c[nH]c2ccccc12` [DMT, N,N-dimethyltryptamine]: on sigma-1 receptor, the “binding to the sigma-1 receptor” value is “binds to the sigma-1 receptor”. Further, at 5-HT7, the inhibition constant Ki was 206 nM. For the same compound, the Ki at 5-HT1B was 129 nM. Besides, in data set [4] (Fear, Physical Distress, Insanity, Isolation, Death, and Paranoia subscales), the “mean participant score, of the maximum score” value is reported as “less than 6%”. Besides, the “mean participant score on each of the CEQ subscales, of the maximum possible score” value in [4] (each CEQ subscale) is given as not above 10%. Moreover, in data set [4] (setting [7]), the “Death, Mean (CEQ dimension)” value was 0.44; the “Fear, Mean (CEQ dimension)” value worked out at 1.889; the “Grief, Mean (CEQ dimension)” value came to 3.11; the “Insanity, Mean (CEQ dimension)” value is reported as 0.89. Also, in data set [4] (setting [7]), the “Isolation, Mean (CEQ dimension)” value is listed as 0.78; the “Paranoia, Mean (CEQ dimension)” value was 0.44; the “Physical Distress, Mean (CEQ dimension)” value was 0.89. Moreover, in data set [4] (setting [8]), the “Death (CEQ dimension score)” value was 1 (2×) and 2 and 0 (6×); the “Fear (CEQ dimension score)” value is 0 (5×) and 5 (3×) and 2; the “Grief (CEQ dimension score)” value was 1 and 6 (2×) and 0 (4×) and 12 and 3; the “Insanity (CEQ dimension score)” value is 0 (5×) and 3 and 2 (2×) and 1. In addition, in data set [4] (setting [8]), the “Isolation (CEQ dimension score)” value was 0 (7×) and 3 and 4; the “Paranoia (CEQ dimension score)” value is 0 (7×) and 2 (2×); the “Physical Distress (CEQ dimension score)” value was 1 (3×) and 5 and 0 (5×). Besides, in [5] (setting [9]), the “2.1 Experience of amazement.” value is 3 and 5 and 4; the “2.4 Experience of ecstasy.” value was 3 and 5 and 4; the “2.5 Sense of awe or awesomeness.” value was 3 and 5 and 4; the “2.6 Feelings of joy.” value was 3 and 4 and 5. Besides, in data set [5] (setting [9]), the “4.2 Feeling that you could not do justice to your experience by describing it in words.” value is 4 and 3 and 5; the “4.3 Feeling that it would be difficult to communicate your own experience to others who have not had similar experiences.” value is 3 and 4 and 5. Further, in data set [5] (setting [10]), the “Ineffability, mean participant score (MEQ30 dimension)” value was 5.00 (4×) and 4.00 (3×) and 3.00 (2×); the “Mysticism, mean participant score (MEQ30 dimension)” value was 2.53 and 3.33 and 5.00 and 3.87 and 4.00 (2×) and 4.73 and 1.33 and 3.60; the “Positive Mood, mean participant score (MEQ30 dimension)” value was 4.33 (2×) and 3.50 (2×) and 4.83 and 4.50 and 2.67 (2×) and 5.00; the “Transcendence, mean participant score (MEQ30 dimension)” value was 2.83 and 5.00 (2×) and 3.83 and 4.00 and 1.50 and 2.67 and 3.50. Also, in data set [5] (setting [7]), the “Ineffability, Mean (MEQ30 dimension)” value was 4.22; the “Mysticism, Mean (MEQ30 dimension)” value is 3.60; the “Positive Mood, Mean (MEQ30 dimension)” value is 3.93; the “Transcendence, Mean (MEQ30 dimension)” value was determined as 3.35. Further, in data set [5] (nine participants), the “participants with a score >= 60% of the maximum score on the Ineffability subscale” value turned out to be 100%; the “participants with a score >= 60% of the maximum score on the Mystical and Positive Mood subscales” value is 78%; the “participants with a score >= 60% of the maximum score on the Transcendence of Time and Space subscale” value is given as 55%; the “participants with a score >= 75% of the maximum score on the Ineffability subscale” value is 78%. Also, in data set [5] (nine participants), the “participants with a score >= 75% of the maximum score on the Transcendence of Time and Space subscale” value came to 44%; the “participants with a score >= 75% of the maximum scores on the Mystical and Positive Mood subscales” value is 55%; the “participants with a score of greater than or equal to 60% on at least one MEQ30 subscale” value was “all participants”. Also, in data set [5] (setting [11]), the “Ineffability, total score (MEQ30 subscale)” value was 15 (4×) and 12 (3×) and 9 (2×); the “Mysticism, total score (MEQ30 subscale)” value is 38 and 50 and 75 and 58 and 60 (2×) and 71 and 20 and 54; the “Positive Mood, total score (MEQ30 subscale)” value is 26 (2×) and 21 (2×) and 29 and 27 and 16 (2×) and 30; the “Transcendence, total score (MEQ30 subscale)” value is 17 and 11 and 30 (2×) and 23 and 24 and 9 and 16 and 21. On 5-HT1D, the Ki is 39 nM. Moreover, the “half life from the blood” value in data set [6] (blood) is “less than 16 minutes”. In addition, in data set [6] (brain), the “half life from the brain” value is reported as “less than six”. Also, the Ki at 5-HT1E is 517 nM. The inhibition constant Ki on 5-HT6 was 464 nM. The Ki at 5-HT2A is 127 nM. In addition, the Ki on 5-HT5A was 2140 nM. Moreover, in data set [2], the “binding to TrkB” value was “do not bind TrkB directly”.
As for `CNC1(c2ccccc2Cl)CCCCC1=O` (stereo not shown) [Ketamine], the “binding to TrkB” value in data set [2] is “does directly bind to TrkB”.
